Test results reported in the Deep4Chem optical property database.
Several values for one entry are separate records, joined by “and”; a condition that tells them apart may be missing. Equal entries are not always repeated.

Assay: photoluminescence quantum yield (fraction); solvent given as SMILES

`COc1ccc2c(c1)c1c(c3cc(OC)ccc32)=[N+]2C(=C(c3c(C)cc(C)cc3C)c3cc4c5cc(OC)ccc5c5ccc(OC)cc5c4n3[B-]2(F)F)C=1` showed a photoluminescence quantum yield (in C1CCCCC1) of 0.08, a photoluminescence quantum yield (in C1CCOC1) of 0.001 and a photoluminescence quantum yield (in CC#N) of 0.01. It also gave a photoluminescence quantum yield (in Cc1ccccc1) of 0.001 and a photoluminescence quantum yield (in ClCCl) of 0.001.
Compound `Cc1ccc(-c2ccc(/C=C/c3ccc(Br)n3C)cn2)nc1` has a photoluminescence quantum yield (in CC#N) of 0.13.
`CCCCN1C(=O)c2cc(Br)c3c4c(Br)cc5c6c(cc(Br)c(c7c(Br)cc(c2c37)C1=O)c64)C(=O)N(CCCC)C5=O` gave a photoluminescence quantum yield (in ClC(Cl)Cl) of 0.31.
For `N#Cc1ccc(-n2c(-c3ccc(-c4ccc(-n5c6ccccc6c6ccccc65)cc4)s3)nc3c4ccccc4c4ccccc4c32)c2ccccc12`, the photoluminescence quantum yield (in ClCCl) was 0.78.
In the case of `CCOC(=O)c1ccccc1-c1c2ccc(=[N+](CC)CC)cc-2oc2c1c(=O)oc1cc3c(cc12)CCCN3C`, the photoluminescence quantum yield (in CCO) is reported as 0.04 and the photoluminescence quantum yield (in ClC(Cl)Cl) is reported as 0.33.
`CCCC1(CCC)c2cc(-c3ccc(C(C)(C)C)cc3)ccc2-c2ccc(-c3ccc4c(c3)C(CCC)(CCC)c3cc(-c5ccc6c(c5)C(CCC)(CCC)c5cc(-c7ccc(C(C)(C)C)cc7)ccc5-6)ccc3-4)cc21` gave a photoluminescence quantum yield (in C1CCCCC1) of 0.9.
With `Cc1oc2c(Cl)cc3c(C)cc(=O)oc3c2c1C` the photoluminescence quantum yield (in C1CCCCC1) was 0.0005, the photoluminescence quantum yield (in C1COCCO1) was 0.003 and the photoluminescence quantum yield (in CC#N) was 0.007. It also gave a photoluminescence quantum yield (in CCO) of 0.02 and a photoluminescence quantum yield (in OCC(F)(F)F) of 0.04.
Work on `CCN(CC)c1ccc2c(C#N)c(/C=C(\C#N)c3nc4ccccc4o3)c(=O)oc2c1` yielded a photoluminescence quantum yield (in C1COCCO1) of 0.0328, a photoluminescence quantum yield (in CC#N) of 0.0658 and a photoluminescence quantum yield (in CCO) of 0.0144. It also gave a photoluminescence quantum yield (in CCOC(C)=O) of 0.0434, a photoluminescence quantum yield (in CO) of 0.0121 and a photoluminescence quantum yield (in Cc1ccccc1) of 0.101. It also gave a photoluminescence quantum yield (in ClCCl) of 0.105.
Work on `CCCCCCCCC1(CCCCCCCC)c2cc(C=O)ccc2-c2ccc(/C=C/c3ccc(N(c4ccccc4)c4ccccc4)cc3)cc21` yielded a photoluminescence quantum yield (in C1CCOC1) of 0.94, a photoluminescence quantum yield (in C1COCCO1) of 0.67 and a photoluminescence quantum yield (in CC#N) of 0.24. The photoluminescence quantum yield (in CC(C)=O) was 0.33, the photoluminescence quantum yield (in CCCCCC) was 0.6 and the photoluminescence quantum yield (in CCOC(C)=O) was 0.6. The photoluminescence quantum yield (in CN(C)C=O) was 0.12, the photoluminescence quantum yield (in CS(C)=O) was 0.2 and the photoluminescence quantum yield (in Cc1ccccc1) was 0.58. The photoluminescence quantum yield (in ClC(Cl)Cl) was 0.53 and the photoluminescence quantum yield (in ClCCl) was 0.7.
In the case of `COc1ccc(C2=C/C(=C\c3ccccc3)C(=O)O2)cc1OC`, the photoluminescence quantum yield (in C1COCCO1) is reported as 0.004.
`CCn1c2ccccc2c2cc(-c3cc(-c4ccc5c(c4)c4ccccc4n5CC)ncn3)ccc21` gave a photoluminescence quantum yield (in C1CCOC1) of 0.44, a photoluminescence quantum yield (in CCOC(C)=O) of 0.8 and a photoluminescence quantum yield (in CN(C)C=O) of 0.76. The photoluminescence quantum yield (in Cc1ccccc1) was 0.73 and the photoluminescence quantum yield (in ClCCl) was 0.75.
`CC1(C)c2ccccc2-n2c(-c3ccc(-n4c5ccccc5c5ccccc54)cc3)nc3cccc1c32` gave a photoluminescence quantum yield (in Cc1ccccc1) of 0.99 and a photoluminescence quantum yield (in O=P(c1ccccc1)(c1ccccc1)c1ccccc1Oc1ccccc1P(=O)(c1ccccc1)c1ccccc1) of 0.85.
Work on `COc1cc2c(cc1-c1ccc([N+](=O)[O-])cc1)Cc1c3c(c4c(c1-2)-c1cc(OC)c(-c2ccc([N+](=O)[O-])cc2)cc1C4)C(=O)N(CCC(C)C)C3=O` yielded a photoluminescence quantum yield (in C1CCOC1) of 0.11.
With `COC(=O)c1c(NC(C)(C)C)oc(-c2ccc(-c3ccccc3)cc2)c1C(=O)OC` the photoluminescence quantum yield (in CC#N) was 0.14.
`N#Cc1ccc(C#Cc2ccc3ccc4ccc(C#Cc5ccc(C#N)cc5)c5ccc2c3c45)cc1` gave a photoluminescence quantum yield (in CCCCCC) of 0.8, a photoluminescence quantum yield (in CO) of 0.734 and a photoluminescence quantum yield (in ClCCl) of 0.732.
`O=C1c2cc(-c3ccccc3)ccc2-c2ccc(-c3ccccc3)cc21` showed a photoluminescence quantum yield (in C1CCOC1) of 0.01.
Compound `C(/C=C/c1ccc(N(c2ccccc2)c2ccccc2)cc1)=C\c1ccncc1` has a photoluminescence quantum yield (in C1COCCO1) of 0.3, a photoluminescence quantum yield (in CC#N) of 0.16 and a photoluminescence quantum yield (in CCCCCCC) of 0.4. For the same compound, the photoluminescence quantum yield (in CO) was 0.02.
In the case of `Clc1ccc(-c2nc(-c3ccccc3)c(N(c3ccccc3)c3ccccc3)s2)cc1`, the photoluminescence quantum yield (in ClC(Cl)Cl) is reported as 0.56.
For `COc1ccccc1-n1nc(C#N)c(N2CCCC2)n1`, the photoluminescence quantum yield (in CC#N) was 0.456.
With `CC(C)(C)N1C(=O)c2c(cc3ccc4cccc5ccc2c3c45)C1O` (stereo unspecified) the photoluminescence quantum yield (in ClC(Cl)Cl) was 0.14 and 0.143.
In the case of `c1ccc(N(c2ccccc2)c2ccc(-c3ncc(-c4ccncc4)s3)cc2)cc1`, the photoluminescence quantum yield (in CO) is reported as 0.07.
